According to patent publication US8129417B2, “Substituted octahydrocyclopenta[C]pyrrol-4-amines as calcium channel blockers” (Abbott Laboratories, priority 2008, dated 2012):

Experiments:
Sprague Dawley rats = assay: Capsaicin induced secondary mechanical hyperalgesia model; assay type: in vivo; conditions: po, 1 h, read-out: % inhibition @ 30 mg/kg p.o., 60 minutes before testing, secondary mechanical hyperalgesia 180 minutes after intraplantar capsaicin, rat
Protocol: (ii) In Vivo Data—Capsaicin Induced Secondary Mechanical Hyperalgesia Model:
Sprague Dawley rats were briefly restrained, and capsaicin was administered at 10 μg in 10 μL of vehicle by intraplantar injection into the center of the right hind paw. Secondary mechanical hyperalgesia (SMH) was measured at the heel away from the site of injection 180 minutes following capsaicin exposure. Compounds and gabapentin (positive control), were administered p.o. 60 minutes before testing (2 hours after capsaicin) or i.p. 30 minutes before testing (2.5 hours after capsaicin). SMH was measured using calibrated von Frey filaments (Stoelting, Woodale, Ill.). Following the 1 hour habituation in the testing room, rats were moved to individual plexiglass chambers that sit on top of a wire mesh to allow for access for stimulation of the plantar surface of the hind paws. Rats were allowed to acclimate to the new chambers for 15 minutes before the onset of testing. The paw withdrawal threshold was determined by increasing and decreasing stimulus intensity (force: g) and calculated using Dixon's up-down method (Chaplan, S. R.; Bach, F. W.; Pogrel, J. W.; Chung, J. M.; Yaksh, T. L.; Quantitative assessment of tactile allodynia in the rat paw. J. Neuroscience Methods 1994, 53(1), 55-63.). The filaments (maximum force of 15.0 g) were held in place for 8 seconds or until there was a withdrawal response from the mechanical stimulation.

human Cav2.2 = human Cav2.2 (Homo sapiens, UniProt Q00975); assay: Assessment of calcium channel activity using FLIPR (Ca2+ influx in IMR32 cells); assay type: cell-based; conditions: 2 μM nifedipine, depolarized with 80 mM KCl
Outline: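 IMR32 neuroblastoma cells seeded at 1-1.2×10^5 cells/well and grown 48 h at 37 °C before FLIPR Ca2+ influx read. Percent inhibition at each concentration vs no-inhibitor activity; IC50 by non-linear sigmoidal dose-response fit.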

[1] = 60 minute pre-incubation with compound

Sequence of human Cav2.2 (Q00975 whole entry): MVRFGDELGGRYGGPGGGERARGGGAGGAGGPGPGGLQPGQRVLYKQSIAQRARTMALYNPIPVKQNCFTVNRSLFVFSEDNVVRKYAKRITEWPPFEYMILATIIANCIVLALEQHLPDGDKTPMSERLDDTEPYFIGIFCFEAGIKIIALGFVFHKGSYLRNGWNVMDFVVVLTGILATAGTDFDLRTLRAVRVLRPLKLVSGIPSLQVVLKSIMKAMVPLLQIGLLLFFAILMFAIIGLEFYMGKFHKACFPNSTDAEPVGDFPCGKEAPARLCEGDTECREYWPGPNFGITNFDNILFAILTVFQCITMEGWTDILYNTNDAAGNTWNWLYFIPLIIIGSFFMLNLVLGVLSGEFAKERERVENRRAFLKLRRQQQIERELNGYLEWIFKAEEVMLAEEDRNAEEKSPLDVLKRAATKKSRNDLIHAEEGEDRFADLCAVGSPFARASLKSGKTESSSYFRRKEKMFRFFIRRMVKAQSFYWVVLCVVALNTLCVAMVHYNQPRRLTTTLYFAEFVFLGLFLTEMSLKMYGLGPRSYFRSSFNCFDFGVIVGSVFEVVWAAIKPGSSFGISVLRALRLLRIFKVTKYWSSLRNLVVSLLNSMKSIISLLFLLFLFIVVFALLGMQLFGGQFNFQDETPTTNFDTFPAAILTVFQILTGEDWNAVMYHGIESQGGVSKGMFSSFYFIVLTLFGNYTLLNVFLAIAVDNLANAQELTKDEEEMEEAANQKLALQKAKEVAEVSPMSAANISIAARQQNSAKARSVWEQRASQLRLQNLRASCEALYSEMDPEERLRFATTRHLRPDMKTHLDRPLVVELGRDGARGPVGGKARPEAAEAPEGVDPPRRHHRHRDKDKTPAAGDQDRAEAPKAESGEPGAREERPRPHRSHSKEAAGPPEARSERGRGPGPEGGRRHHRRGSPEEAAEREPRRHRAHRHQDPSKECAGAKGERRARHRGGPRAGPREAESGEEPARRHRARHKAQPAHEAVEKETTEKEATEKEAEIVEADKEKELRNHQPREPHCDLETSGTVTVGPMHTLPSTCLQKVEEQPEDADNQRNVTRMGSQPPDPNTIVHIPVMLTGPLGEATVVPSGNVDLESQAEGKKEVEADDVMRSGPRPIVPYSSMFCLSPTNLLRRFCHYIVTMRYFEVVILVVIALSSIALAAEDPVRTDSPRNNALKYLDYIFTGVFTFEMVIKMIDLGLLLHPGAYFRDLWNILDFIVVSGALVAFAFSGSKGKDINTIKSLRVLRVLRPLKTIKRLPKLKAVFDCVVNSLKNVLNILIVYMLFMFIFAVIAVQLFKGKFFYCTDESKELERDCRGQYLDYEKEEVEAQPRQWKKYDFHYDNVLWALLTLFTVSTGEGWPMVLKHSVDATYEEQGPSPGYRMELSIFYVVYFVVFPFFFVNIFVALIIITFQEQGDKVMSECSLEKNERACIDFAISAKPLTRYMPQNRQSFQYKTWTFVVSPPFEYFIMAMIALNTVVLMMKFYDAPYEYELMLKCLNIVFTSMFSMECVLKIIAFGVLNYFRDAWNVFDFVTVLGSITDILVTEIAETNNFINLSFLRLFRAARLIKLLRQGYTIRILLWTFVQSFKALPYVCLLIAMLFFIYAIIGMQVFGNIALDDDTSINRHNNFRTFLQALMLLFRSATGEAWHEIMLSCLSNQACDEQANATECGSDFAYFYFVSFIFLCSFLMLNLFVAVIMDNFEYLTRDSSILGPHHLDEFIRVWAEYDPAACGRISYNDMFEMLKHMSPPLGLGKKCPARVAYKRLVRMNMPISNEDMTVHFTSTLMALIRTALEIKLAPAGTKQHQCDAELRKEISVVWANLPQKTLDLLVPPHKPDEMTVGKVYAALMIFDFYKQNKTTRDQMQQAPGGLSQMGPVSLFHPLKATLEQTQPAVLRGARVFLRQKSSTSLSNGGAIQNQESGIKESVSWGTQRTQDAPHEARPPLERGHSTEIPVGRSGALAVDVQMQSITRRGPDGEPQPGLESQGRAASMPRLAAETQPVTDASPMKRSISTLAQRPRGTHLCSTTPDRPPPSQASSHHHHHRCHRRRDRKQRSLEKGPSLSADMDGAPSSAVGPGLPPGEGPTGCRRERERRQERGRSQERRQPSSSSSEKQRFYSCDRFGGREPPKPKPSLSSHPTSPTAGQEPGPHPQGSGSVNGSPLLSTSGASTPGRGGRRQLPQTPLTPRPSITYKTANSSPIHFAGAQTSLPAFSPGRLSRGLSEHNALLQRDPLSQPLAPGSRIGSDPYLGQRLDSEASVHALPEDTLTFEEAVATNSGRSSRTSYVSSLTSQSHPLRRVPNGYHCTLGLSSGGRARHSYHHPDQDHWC
Sequence of human Cav2.2 (P54289 25-946 partner limits assumed): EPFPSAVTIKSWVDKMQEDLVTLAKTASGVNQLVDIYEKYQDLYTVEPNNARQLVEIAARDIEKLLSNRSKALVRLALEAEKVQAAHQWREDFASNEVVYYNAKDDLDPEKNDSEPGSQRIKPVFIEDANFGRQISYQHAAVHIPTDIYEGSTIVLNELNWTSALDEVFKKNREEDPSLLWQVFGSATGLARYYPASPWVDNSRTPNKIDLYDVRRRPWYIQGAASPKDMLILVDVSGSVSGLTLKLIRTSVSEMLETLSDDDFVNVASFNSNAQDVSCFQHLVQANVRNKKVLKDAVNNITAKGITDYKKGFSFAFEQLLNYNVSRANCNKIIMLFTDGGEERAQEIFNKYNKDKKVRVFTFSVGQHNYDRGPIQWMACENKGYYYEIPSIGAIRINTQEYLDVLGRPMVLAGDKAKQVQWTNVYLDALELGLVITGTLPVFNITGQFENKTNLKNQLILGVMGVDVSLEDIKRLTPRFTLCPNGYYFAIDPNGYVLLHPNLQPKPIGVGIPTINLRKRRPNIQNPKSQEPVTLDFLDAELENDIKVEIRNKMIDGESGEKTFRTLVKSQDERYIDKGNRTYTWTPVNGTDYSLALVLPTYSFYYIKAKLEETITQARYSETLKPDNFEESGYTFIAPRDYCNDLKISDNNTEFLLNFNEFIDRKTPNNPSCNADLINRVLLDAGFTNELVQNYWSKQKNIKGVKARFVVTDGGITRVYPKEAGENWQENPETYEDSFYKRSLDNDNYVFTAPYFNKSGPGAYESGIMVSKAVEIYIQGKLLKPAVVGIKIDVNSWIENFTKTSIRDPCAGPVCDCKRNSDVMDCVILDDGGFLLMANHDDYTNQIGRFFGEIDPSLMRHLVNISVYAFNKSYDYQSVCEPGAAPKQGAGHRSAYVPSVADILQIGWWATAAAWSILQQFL
Sequence of human Cav2.2 (P54289 947-1103 partner limits assumed): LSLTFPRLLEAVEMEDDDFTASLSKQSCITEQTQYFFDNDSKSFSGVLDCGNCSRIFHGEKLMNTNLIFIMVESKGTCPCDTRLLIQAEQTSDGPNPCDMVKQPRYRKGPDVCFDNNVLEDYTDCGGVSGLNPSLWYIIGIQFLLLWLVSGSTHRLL
Sequence of human Cav2.2 (P54284 whole entry partner): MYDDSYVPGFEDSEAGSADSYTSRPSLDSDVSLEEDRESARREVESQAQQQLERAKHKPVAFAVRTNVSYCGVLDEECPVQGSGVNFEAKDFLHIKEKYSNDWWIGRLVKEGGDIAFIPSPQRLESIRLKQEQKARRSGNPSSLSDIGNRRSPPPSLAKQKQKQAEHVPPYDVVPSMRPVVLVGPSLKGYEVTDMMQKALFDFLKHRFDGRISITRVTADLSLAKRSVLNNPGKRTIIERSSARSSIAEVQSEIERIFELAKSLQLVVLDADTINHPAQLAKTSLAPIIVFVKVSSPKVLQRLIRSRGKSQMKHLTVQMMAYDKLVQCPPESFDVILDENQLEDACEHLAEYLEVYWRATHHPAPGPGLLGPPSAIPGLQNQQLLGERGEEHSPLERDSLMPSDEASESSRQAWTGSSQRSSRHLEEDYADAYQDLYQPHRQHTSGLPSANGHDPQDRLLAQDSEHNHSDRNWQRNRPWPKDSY

Molecule	inhibition in vivo at 30 mg/kg (Sprague Dawley rats)	IC50 (human Cav2.2; [1])	IC50 (human Cav2.2; 3 minute pre-incubation with compound (*))
O=C(N[C@H]1CC[C@H]2CN(Cc3cccc(C(F)(F)F)c3)C[C@H]21)C(C1CCCCC1)C1CCCCC1 [Example 54, 2,2-dicyclohexyl-N-{(3aS,4S,6aR)-2-[3-(trifluoromethyl)benzyl]octahydrocyclopenta[c]pyrrol-4-yl}acetamide]	38%	0.5 µM	–
O=C(N[C@@H]1CC[C@H]2CN(Cc3cccc(C(F)(F)F)c3)C[C@H]21)C(C1CCCCC1)C1CCCCC1 [Example 75, 2,2-dicyclohexyl-N-{(3aS,4R,6aR)-2-[3-(trifluoromethyl)benzyl]octahydrocyclopenta[c]pyrrol-4-yl}acetamide]	85%	0.5 µM	–
O=C(N[C@H]1CC[C@@H]2CN(Cc3cccc(C(F)(F)F)c3)C[C@@H]21)C(C1CCCCC1)C1CCCCC1 [Example 156, 2,2-dicyclohexyl-N-{(3aR,4S,6aS)-2-[3-(trifluoromethyl)benzyl]octahydrocyclopenta[c]pyrrol-4-yl}acetamide]	67%	0.8 µM	–
O=C(N[C@@H]1CC[C@@H]2CN(Cc3cccc(C(F)(F)F)c3)C[C@@H]21)C(C1CCCCC1)C1CCCCC1 [Example 157, 2,2-dicyclohexyl-N-{(3aR,4R,6aS)-2-[3-(trifluoromethyl)benzyl]octahydrocyclopenta[c]pyrrol-4-yl}acetamide]	57%	2.1 µM	–
CN[C@@H](CC(C)C)C(=O)N[C@@H]1CC[C@H]2CN(Cc3ccccc3)C[C@H]21 [Example 165, N^1-[(3aS,4R,6aR)-2-benzyloctahydrocyclopenta[c]pyrrol-4-yl]-N^2-methyl-L-leucinamide]	92%	33.3 µM	–
CC(C)C[C@H](NS(C)(=O)=O)C(=O)N[C@@H]1CC[C@H]2CN(Cc3cccc(C(F)(F)F)c3)C[C@H]21 [Example 170, N^2-(methylsulfonyl)-N^1-{(3aS,4R,6aR)-2-[3-(trifluoromethyl)benzyl]octahydrocyclopenta[c]pyrrol-4-yl}-L-leucinamide]	57%	–	–
CC(C)C[C@H](NS(=O)(=O)C1CC1)C(=O)N[C@@H]1CC[C@H]2CN(Cc3cccc(C(F)(F)F)c3)C[C@H]21 [Example 172, N^2-(cyclopropylsulfonyl)-N^1-{(3aS,4R,6aR)-2-[3-(trifluoromethyl)benzyl]octahydrocyclopenta[c]pyrrol-4-yl}-L-leucinamide]	85%	–	–
CN[C@@H](CC(C)C)C(=O)N[C@@H]1CC[C@H]2CN(S(=O)(=O)c3ccc(C(F)(F)F)cc3)C[C@H]21 [Example 183, N^2-methyl-N^1-((3aS,4R,6aR)-2-{[4-(trifluoromethyl)phenyl]sulfonyl}octahydrocyclopenta[c]pyrrol-4-yl)-L-leucinamide]	78%	–	–
CC(C)C[C@@H](C(=O)N[C@@H]1CC[C@H]2CN(Cc3ccccc3)C[C@H]21)N1CCCS1(=O)=O [Example 220, (2S)—N-[(3aS,4R,6aR)-2-benzyloctahydrocyclopenta[c]pyrrol-4-yl]-2-(1,1-dioxidoisothiazolidin-2-yl)-4-methylpentanamide]	76%	> 9 µM	–
CCC[C@H](NC(=O)OC(C)C)C(=O)N[C@H]1CC[C@@H]2CN(Cc3ccc(C(F)(F)F)cc3)C[C@@H]21 [Example 280, isopropyl(S)-1-oxo-1-((3aR,4S,6aS)-2-(4-(trifluoromethyl)benzyl)octahydrocyclopenta[c]pyrrol-4-ylamino)pentan-2-ylcarbamate]	38%	5.04 µM	–
CCC[C@H](NC)C(=O)N[C@H]1CC[C@@H]2CN(S(=O)(=O)c3ccc(C(F)(F)F)cc3)C[C@@H]21 [Example 405, N^2-methyl-N^1-((3aR,4S,6aS)-2-{[4-(trifluoromethyl)phenyl]sulfonyl}octahydrocyclopenta[c]pyrrol-4-yl)-L-norvalinamide]	32%	–	–
CN[C@@H](CC(C)(C)C)C(=O)N[C@H]1CC[C@@H]2CN(S(=O)(=O)c3ccc(C(F)(F)F)cc3)C[C@@H]21 [Example 415, N^2,4-dimethyl-N^1-((3aR,4S,6aS)-2-{[4-(trifluoromethyl)phenyl]sulfonyl}octahydrocyclopenta[c]pyrrol-4-yl)-L-leucinamide]	52%	2.97 µM	–
CC(C)(C)C[C@H](NCC1CC1)C(=O)N[C@H]1CC[C@@H]2CN(c3ccc(C(F)(F)F)cn3)C[C@@H]21 [Example 478, N^2-(cyclopropylmethyl)-4-methyl-N^1-{(3aR,4S,6aS)-2-[5-(trifluoromethyl)pyridin-2-yl]octahydrocyclopenta[c]pyrrol-4-yl}-L-leucinamide]	57%	0.75 µM	–
CC(C)(C)C[C@H](NCC1CC1)C(=O)N[C@H]1CC[C@@H]2CN(c3cccc(C(F)(F)F)n3)C[C@@H]21 [Example 479, N^2-(cyclopropylmethyl)-4-methyl-N^1-{(3aR,4S,6aS)-2-[6-(trifluoromethyl)pyridin-2-yl]octahydrocyclopenta[c]pyrrol-4-yl}-L-leucinamide]	40%	–	–
CCC[C@H](NC)C(=O)N[C@H]1CC[C@@H]2CN(S(=O)(=O)c3cccc(Cl)c3Cl)C[C@@H]21 [Example 548, N^1-{(3aR,4S,6aS)-2-[(2,3-dichlorophenyl)sulfonyl]octahydrocyclopenta[c]pyrrol-4-yl}-N^2-methyl-L-norvalinamide]	–	1.05 µM	–
CCC[C@H](NC)C(=O)N[C@H]1CC[C@@H]2CN(S(=O)(=O)c3ccccc3C(F)(F)F)C[C@@H]21 [Example 550, N^2-methyl-N^1-((3aR,4S,6aS)-2-{[2-(trifluoromethyl)phenyl]sulfonyl}octahydrocyclopenta[c]pyrrol-4-yl)-L-norvalinamide]	–	2.57 µM	–
CCC[C@H](NC)C(=O)N[C@H]1CC[C@@H]2CN(S(=O)(=O)c3cccc(Br)c3)C[C@@H]21 [Example 551, N^1-{(3aR,4S,6aS)-2-[(3-bromophenyl)sulfonyl]octahydrocyclopenta[c]pyrrol-4-yl}-N^2-methyl-L-norvalinamide]	–	2.49 µM	–
CCC[C@H](NC)C(=O)N[C@H]1CC[C@@H]2CN(S(=O)(=O)c3ccc(C(F)(F)F)cc3Cl)C[C@@H]21 [Example 552, N^1-((3aR,4S,6aS)-2-{[2-chloro-4-(trifluoromethyl)phenyl]sulfonyl}octahydrocyclopenta[c]pyrrol-4-yl)-N^2-methyl-L-norvalinamide]	–	0.78 µM	–
CCC[C@H](NC)C(=O)N[C@H]1CC[C@@H]2CN(S(=O)(=O)c3cc(C(F)(F)F)ccc3Cl)C[C@@H]21 [Example 553, N^1-((3aR,4S,6aS)-2-{[2-chloro-5-(trifluoromethyl)phenyl]sulfonyl}octahydrocyclopenta[c]pyrrol-4-yl)-N^2-methyl-L-norvalinamide]	–	1.94 µM	–
CC(C)N([C@H]1CC[C@@H]2CN(Cc3ccccc3)C[C@@H]21)S(=O)(=O)c1cccc(C(F)(F)F)c1 [Example 555, N-[(3aR,4S,6aS)-2-benzyloctahydrocyclopenta[c]pyrrol-4-yl]-N-isopropyl-3-(trifluoromethyl)benzenesulfonamide]	–	2.51 µM	–
O=S(=O)(N[C@H]1CC[C@@H]2CN(Cc3ccccc3)C[C@@H]21)c1cccc(C(F)(F)F)c1 [Example 556, N-[(3aR,4S,6aS)-2-benzyloctahydrocyclopenta[c]pyrrol-4-yl]-3-(trifluoromethyl)benzenesulfonamide]	–	2.58 µM	–
CN[C@@H](CC(C)C)C(=O)N1C[C@H]2CC[C@H](N(C(C)C)S(=O)(=O)c3cccc(C(F)(F)F)c3)[C@H]2C1 [Example 557, N-isopropyl-N-[(3aR,4S,6aS)-2-(N-methyl-L-leucyl)octahydrocyclopenta[c]pyrrol-4-yl]-3-(trifluoromethyl)benzenesulfonamide]	–	1.14 µM	–
CN[C@@H](CC(C)C)C(=O)N1C[C@H]2CC[C@H](NS(=O)(=O)c3cccc(C(F)(F)F)c3)[C@H]2C1 [Example 558, N-[(3aR,4S,6aS)-2-(N-methyl-L-leucyl)octahydrocyclopenta[c]pyrrol-4-yl]-3-(trifluoromethyl)benzenesulfonamide]	–	4.88 µM	–
CNC(CC(C)C)C(=O)N1CC2CCC(N(C3CC3)S(=O)(=O)c3cccc(C(F)(F)F)c3)C2C1 [Example 559, N-cyclopropyl-N-[(3aS*,4S*,6aR*)-[2-(N-methyl-L-leucyl)octahydrocyclopenta[c]pyrrol-4-yl]-3-(trifluoromethyl)benzenesulfonamide]	–	1.68 µM	–
N-((3aR,4S,6aS)-2-{[2-chloro-4-(trifluoromethyl)phenyl]sulfonyl}octahydrocyclopenta[c]pyrrol-4-yl)-N-methyl-L-phenylalaninamide [Example 432]	–	1.67 µM	–
N-[(3aS*,4R*,6aR*)-2-benzyloctahydrocyclopenta[c]pyrrol-4-yl]-2-cyclohexyl-2-phenylacetamide [Example 4]	–	–	3.5 µM
N-methyl-N-((3aR,4S,6aS)-2-{[4-(trifluoromethyl)phenyl]sulfonyl}octahydrocyclopenta[c]pyrrol-4-yl)-L-phenylalaninamide [Example 430]	–	1.75 µM	–
